Columns and labels:
giant foxtail = assay: Test B pre/postemergence giant foxtail; type: in vivo, Setaria faberii
Procedure, shortened: (§1)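 Test chemicals in a non-phytotoxic solvent mixture with surfactant were sprayed preemergence onto planted seeds and postemergence onto plants 2 to 18 cm tall (1- to 4-leaf stage). After twelve to sixteen days in a greenhouse, injury was visually rated against untreated controls from 0 (no effect) to 10 (complete control).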

duck salad = assay: Test B flood test duck salad; type: in vivo, Heteranthera limosa
Procedure, shortened: (§2)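 Each value is a visual injury score relative to controls, with 10 meaning complete control and 0 no effect. Evaluation took place twelve to sixteen days after the 2-leaf-stage plants were treated and kept in the greenhouse.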

cocklebur = assay: Test B pre/postemergence cocklebur; type: in vivo, Xanthium strumarium
Procedure, shortened: as §1

wild oat = assay: Test B pre/postemergence wild oat; type: in vivo, Avena fatua
Procedure, shortened: as §1

purple nutsedge = assay: Test B pre/postemergence purple nutsedge; type: in vivo, Cyperus rotundus
Procedure, shortened: as §1

bedstraw = assay: Test B pre/postemergence bedstraw; type: in vivo, Galium aparine; conditions: Postemergence, Rate 500 g/ha; scale of 0 to 10 where 0 is no effect and 10 is complete control
Procedure, shortened: as §1

bamyardgrass = assay: Test B flood test barnyardgrass; type: in vivo, Echinochloa crus-galli
Procedure, shortened: as §2

surinam grass = assay: Test B pre/postemergence surinam grass; type: in vivo, Brachiaria decumbens
Procedure, shortened: as §1

smallflower flatsedge = assay: Test B flood test smallflower flatsedge; type: in vivo, Cyperus difformis
Procedure, shortened: as §2

corn = assay: Test B pre/postemergence corn; type: in vivo, Zea mays
Procedure, shortened: as §1

blackgrass = assay: Test B pre/postemergence blackgrass; type: in vivo, Alopecurus myosuroides
Procedure, shortened: as §1

morningglory = assay: Test B pre/postemergence morningglory; type: in vivo, Ipomoea hederacea
Procedure, shortened: as §1

wheat = assay: Test B pre/postemergence wheat; type: in vivo, Triticum aestivum
Procedure, shortened: as §1

velvetleaf = assay: Test B pre/postemergence velvetleaf; type: in vivo, Abutilon theophrasti
Procedure, shortened: as §1

crabgrass = assay: Test B pre/postemergence crabgrass; type: in vivo, Digitaria sanguinalis
Procedure, shortened: as §1

rice = assay: Test B flood test rice; type: in vivo, Oryza sativa
Procedure, shortened: as §2

[1] = Postemergence, Rate 125 g/ha, scale 0 to 10, 0 is no effect, 10 is complete control
[2] = Postemergence, Rate 250 g/ha, scale 0 to 10, 0 is no effect, 10 is complete control
[3] = Postemergence, Rate 500 g/ha, scale of 0 to 10 where 0 is no effect and 10 is complete control
[4] = Preemergence, Rate 62 g/ha, scale 0 to 10 (0 no effect, 10 complete control)
[5] = Preemergence, Rate 125 g/ha, scale of 0 to 10 where 0 is no effect and 10 is complete control
[6] = Preemergence, Rate 250 g/ha, scale of 0 to 10 where 0 is no effect and 10 is complete control
[7] = Preemergence, Rate 500 g/ha, scale of 0 to 10 where 0 is no effect and 10 is complete control
[8] = Rate 62 g/ha, Postemergence, scale of 0 to 10 where 0 is no effect and 10 is complete control
[9] = Rate 62 g/ha, flood test species, Pre-emergence, visual evaluation after twelve to sixteen days
[10] = Rate 125 g/ha, under heading Pre-emergence, flood test species, visual evaluation after twelve to sixteen days
[11] = Rate 250 g/ha, Pre-emergence, flood-test species, scale 0 to 10, 0 is no effect, 10 is complete control
[12] = Rate 500 g/ha, Pre-emergence, flood test species, scale 0 to 10 (0 no effect, 10 complete control)

CC(C)N(C(=O)n1oc(=O)[nH]c1=O)c1ccc(F)cc1F [Compound 391]
0: Plant response rating, Giant foxtail (giant foxtail; [1]) | Plant response rating, Giant foxtail (giant foxtail; [2]) | Giant foxtail plant response rating (giant foxtail; [3]) | Plant response rating, Giant foxtail (giant foxtail; [4]) | Plant response rating, Giant foxtail (giant foxtail; [5]) | Giant foxtail plant response rating (giant foxtail; [6]) | Giant foxtail plant response rating (giant foxtail; [7]) | Giant foxtail plant response rating (giant foxtail; [8]) | Plant response rating, Ducksalad (0 to 10 scale, 0 is no effect, 10 is complete control) (duck salad; [9]) | Ducksalad plant response rating (0 to 10 scale, 0 is no effect, 10 is complete control) (duck salad; [10]) | Ducksalad plant response rating (duck salad; [11]) | Ducksalad plant response rating (duck salad; [12]) | Plant response rating, Cocklebur (cocklebur; [1]) | Plant response rating, Cocklebur (cocklebur; [2]) | Cocklebur plant response rating (cocklebur; [3]) | Plant response rating, Cocklebur (cocklebur; [4]) | Plant response rating, Cocklebur (cocklebur; [5]) | Cocklebur plant response rating (cocklebur; [6]) | Cocklebur plant response rating (cocklebur; [7]) | Cocklebur plant response rating (cocklebur; [8]) | Plant response rating, Wild oats (wild oat; [2]) | Wild oats plant response rating (wild oat; [3]) | Plant response rating, Wild oats (wild oat; [4]) | Plant response rating, Wild oats (wild oat; [5]) | Wild oats plant response rating (wild oat; [6]) | Wild oats plant response rating (wild oat; [7]) | Wild oats plant response rating (wild oat; [8]) | Plant response rating, Nutsedge (purple nutsedge; [2]) | Nutsedge plant response rating (purple nutsedge; [3]) | Plant response rating, Nutsedge (purple nutsedge; [4]) | Plant response rating, Nutsedge (purple nutsedge; [5]) | Nutsedge plant response rating (purple nutsedge; [6]) | Nutsedge plant response rating (purple nutsedge; [7]) | Nutsedge plant response rating (purple nutsedge; [8]) | Bedstraw plant response rating (bedstraw) | Plant response rating, Barnyardgrass (0 to 10 scale, 0 is no effect, 10 is complete control) (bamyardgrass; [9]) | Barnyardgrass plant response rating (0 to 10 scale, 0 is no effect, 10 is complete control) (bamyardgrass; [10]) | Barnyardgrass plant response rating (bamyardgrass; [11]) | Barnyardgrass plant response rating (bamyardgrass; [12]) | Plant response rating, B. signalgrass (surinam grass; [1]) | Plant response rating, B. signalgrass (surinam grass; [2]) | B. signalgrass plant response rating (surinam grass; [3]) | Plant response rating, B. signalgrass (surinam grass; [4]) | Plant response rating, B. signalgrass (surinam grass; [5]) | B. signalgrass plant response rating (surinam grass; [6]) | B. signalgrass plant response rating (surinam grass; [7]) | B. signalgrass plant response rating (surinam grass; [8]) | Plant response rating, S. Flatsedge (0 to 10 scale, 0 is no effect, 10 is complete control) (smallflower flatsedge; [9]) | S. Flatsedge plant response rating (0 to 10 scale, 0 is no effect, 10 is complete control) (smallflower flatsedge; [10]) | S. Flatsedge plant response rating (smallflower flatsedge; [11]) | S. Flatsedge plant response rating (smallflower flatsedge; [12]) | Plant response rating, Corn (corn; [1]) | Plant response rating, Corn (corn; [2]) | Corn plant response rating (corn; [3]) | Plant response rating, Corn (corn; [4]) | Plant response rating, Corn (corn; [5]) | Corn plant response rating (corn; [6]) | Corn plant response rating (corn; [7]) | Corn plant response rating (corn; [8]) | Plant response rating, Blackgrass (blackgrass; [2]) | Blackgrass plant response rating (blackgrass; [3]) | Plant response rating, Blackgrass (blackgrass; [4]) | Plant response rating, Blackgrass (blackgrass; [5]) | Blackgrass plant response rating (blackgrass; [6]) | Blackgrass plant response rating (blackgrass; [7]) | Plant response rating, Morningglory (morningglory; [2]) | Morningglory plant response rating (morningglory; [3]) | Plant response rating, Morningglory (morningglory; [4]) | Plant response rating, Morningglory (morningglory; [5]) | Morningglory plant response rating (morningglory; [6]) | Morningglory plant response rating (morningglory; [7]) | Morningglory plant response rating (morningglory; [8]) | Plant response rating, Wheat (wheat; [2]) | Wheat plant response rating (wheat; [3]) | Plant response rating, Wheat (wheat; [4]) | Plant response rating, Wheat (wheat; [5]) | Wheat plant response rating (wheat; [6]) | Wheat plant response rating (wheat; [7]) | Wheat plant response rating (wheat; [8]) | Plant response rating, Velvetleaf (velvetleaf; [2]) | Velvetleaf plant response rating (velvetleaf; [3]) | Plant response rating, Velvetleaf (velvetleaf; [4]) | Plant response rating, Velvetleaf (velvetleaf; [5]) | Velvetleaf plant response rating (velvetleaf; [6]) | Velvetleaf plant response rating (velvetleaf; [7]) | Velvetleaf plant response rating (velvetleaf; [8]) | Plant response rating, Crabgrass (crabgrass; [1]) | Plant response rating, Crabgrass (crabgrass; [2]) | Crabgrass plant response rating (crabgrass; [3]) | Plant response rating, Crabgrass (crabgrass; [4]) | Plant response rating, Crabgrass (crabgrass; [5]) | Crabgrass plant response rating (crabgrass; [6]) | Crabgrass plant response rating (crabgrass; [7]) | Crabgrass plant response rating (crabgrass; [8]) | Plant response rating, Rice (0 to 10 scale, 0 is no effect, 10 is complete control) (rice; [9]) | Rice plant response rating (0 to 10 scale, 0 is no effect, 10 is complete control) (rice; [10]) | Rice plant response rating (rice; [11]) | Rice plant response rating (rice; [12])
